Measurements from patent publication US20150098983A1, “Methods and Compositions for Treating Withdrawal Syndromes Using Non-Sedative Dexmedetomidine Transdermal Compositions” (Teikoku Pharma USA, Inc., priority 2013, published 2015).
Like-named read-outs stand apart in the source and are kept apart here.

- solubility of dexmedetomidine (in Duro-Tak 87-2979): less than 2%
- solubility of dexmedetomidine (in Duro-Tak 387/87-2353 (acid functionalized acrylate adhesive)): 10-15%
- solubility of dexmedetomidine (in hydroxyl functionalized acrylate polymer): less than 1%
- solubility of dexmedetomidine (in lauryl lactate): 5 to 10%
- solubility of dexmedetomidine (in levulinic acid): ~60%
- solubility of dexmedetomidine (in oleic acid): ~40%
- solubility of dexmedetomidine (in propylene glycolmonolaurate): 5 to 10%
Structure (SMILES): Cc1cccc([C@H](C)c2cnc[nH]2)c1C [Dexmedetomidine]
